Data taken from ChEMBL document CHEMBL4808171, “Structure-Activity Relationship Study and Biological Evaluation of 2-(Disubstituted phenyl)-indole-5-propanoic Acid Derivatives as GPR40 Full Agonists” (J Med Chem, 2021).
Calls of active or inactive are those of the source. The calls are words filed in the database; no cut-off is given here.

Legend:
[1] = target: T1, Free fatty acid receptor 1 (Homo sapiens, UniProt O14842); assay: Agonist activity at GPR40 (unknown origin) expressed in CHO cells co-expressing luc2P/SRE assessed as firefly luciferase activity at 10 uM incubated for 24 hrs hrs by Bright-Glo based serum response element (SRE) luciferase reporter assay relative to TAK875; format: functional, cell-based; settings: filed as positive allosteric modulator
[2] = target: T2, Peroxisome proliferator-activated receptor gamma (Homo sapiens, UniProt P37231); assay: Agonist activity at human PPARgamma expressed in CHO cells assessed as increase in receptor transcriptional activity incubated for 24 hrs by dual luciferase reporter gene assay; format: cell-based
T2 sequence (P37231 whole entry): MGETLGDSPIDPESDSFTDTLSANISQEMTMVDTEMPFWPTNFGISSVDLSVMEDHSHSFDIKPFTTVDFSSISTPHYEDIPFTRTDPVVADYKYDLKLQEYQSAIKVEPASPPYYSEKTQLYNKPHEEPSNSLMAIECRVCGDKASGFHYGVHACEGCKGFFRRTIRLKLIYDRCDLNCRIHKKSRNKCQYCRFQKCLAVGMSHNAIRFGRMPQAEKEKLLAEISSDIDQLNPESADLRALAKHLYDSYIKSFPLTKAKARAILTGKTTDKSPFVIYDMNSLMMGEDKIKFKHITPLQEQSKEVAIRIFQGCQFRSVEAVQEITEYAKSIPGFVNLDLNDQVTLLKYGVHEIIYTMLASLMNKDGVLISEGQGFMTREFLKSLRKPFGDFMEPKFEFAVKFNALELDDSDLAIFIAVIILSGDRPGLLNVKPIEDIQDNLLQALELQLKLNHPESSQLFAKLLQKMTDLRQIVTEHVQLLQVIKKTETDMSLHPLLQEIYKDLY

[3] = target: T3, Peroxisome proliferator-activated receptor gamma (Homo sapiens) (UniProt P37231); assay: Agonist activity at human PPARgamma expressed in CHO cells assessed as increase in receptor transcriptional activity at 1 uM incubated for 24 hrs by dual luciferase reporter gene assay relative to rosiglitazone; format: cell-based
T3 sequence (whole entry): T2 sequence (P37231 whole entry)

[4] = target: T1, Free fatty acid receptor 1; assay: Agonist activity at GPR40 (unknown origin) expressed in CHO cells assessed as increase in cAMP level incubated for 30 mins by cAMP-Glo assay; format: functional, cell-based
[5] = target: Free fatty acid receptor 1 (Mus musculus) (UniProt Q76JU9); assay: Agonist activity at GPR40 in mouse MIN6 cells assessed as fold increase in 17 mM glucose-mediated insulin secretion at 1 to 10 uM incubated for 2 hrs by ELISA relative to control; format: functional, cell-based; settings: filed as positive allosteric modulator, dose 1-10 µM
[6] = target: Free fatty acid receptor 1 (Mus musculus) (UniProt Q76JU9); assay: Agonist activity at GPR40 in mouse MIN6 cells assessed as fold increase in 17 mM glucose-mediated insulin secretion at 1 to 10 uM incubated for 2 hrs in presence of GW1100 by ELISA relative to control; format: functional, cell-based; settings: dose 1-10 µM
MIN6 [7] = assay: Cytotoxicity in mouse MIN6 cells assessed as caspase 3/7 activity at 100 uM incubated for 72 hrs by fluorescence assay; format: cell-based; settings: min6, 72 h
MIN6 [8] = assay: Effect on BSA-PA conjugate-induced lipo-toxicity in mouse MIN6 cells assessed as caspase 3/7 activity at 50 uM incubated for 72 hrs by fluorescence assay; format: functional, cell-based
[9] = Metabolic stability in human liver microsomes assessed as intrinsic clearance; format: ADME, Microsome; settings: read-out: CLH
[10] = Tmax in CD-1 mouse at 10 mg/kg, po measured up to 8 hrs by LC-MS/MS analysis; format: ADME, organism-based; settings: in vivo
[11] = Tmax in CD-1 mouse at 30 mg/kg, po measured up to 8 hrs by LC-MS/MS analysis; format: ADME, organism-based; settings: in vivo
[12] = Tlast in CD-1 mouse at 30 mg/kg, po measured up to 8 hrs by LC-MS/MS analysis; format: ADME, organism-based; settings: in vivo
[13] = AUC (0 to t) in CD-1 mouse at 30 mg/kg, po measured up to 8 hrs by LC-MS/MS analysis; format: ADME, organism-based; parameters: route oral, dose 30 mg/kg, time <=8; settings: in vivo
[14] = AUC (0 to t) in CD-1 mouse at 90 mg/kg, po measured up to 8 hrs by LC-MS/MS analysis; format: ADME, organism-based; parameters: route oral, dose 90 mg/kg, time <=8; settings: in vivo
Mus musculus [15] = assay: Antidiabetic activity in db/db mouse assessed as reduction in plasma glucose level at 30 mg/kg, po pretreated 1 hr before glucose challenge measured up to 120 mins by Oral glucose tolerance test; format: functional, organism-based
Mus musculus [16] = assay: Antidiabetic activity in C57BL/6J mouse assessed as increase in plasma GLP1 level at 30 mg/kg, po measured after 30 mins by ELISA relative control; format: functional, organism-based
Mus musculus [17] = assay: Antidiabetic activity in C57BL/6J mouse assessed as increase in plasma GLP1 level at 30 mg/kg, po measured after 30 mins in presence of KR-62436 by ELISA relative to KR-62436 treated control; format: functional; settings: 0.5 h

Sequence of Free fatty acid receptor 1 (Mus musculus) (Q76JU9 whole entry): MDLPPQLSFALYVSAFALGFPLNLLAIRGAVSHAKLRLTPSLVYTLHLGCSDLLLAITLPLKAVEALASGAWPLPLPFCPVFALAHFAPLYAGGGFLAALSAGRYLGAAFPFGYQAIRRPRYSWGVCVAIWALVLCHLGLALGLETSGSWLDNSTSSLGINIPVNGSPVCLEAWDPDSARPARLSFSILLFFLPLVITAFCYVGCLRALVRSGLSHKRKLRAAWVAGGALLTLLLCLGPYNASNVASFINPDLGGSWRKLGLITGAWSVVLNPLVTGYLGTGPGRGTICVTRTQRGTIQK
T1 sequence (O14842 whole entry): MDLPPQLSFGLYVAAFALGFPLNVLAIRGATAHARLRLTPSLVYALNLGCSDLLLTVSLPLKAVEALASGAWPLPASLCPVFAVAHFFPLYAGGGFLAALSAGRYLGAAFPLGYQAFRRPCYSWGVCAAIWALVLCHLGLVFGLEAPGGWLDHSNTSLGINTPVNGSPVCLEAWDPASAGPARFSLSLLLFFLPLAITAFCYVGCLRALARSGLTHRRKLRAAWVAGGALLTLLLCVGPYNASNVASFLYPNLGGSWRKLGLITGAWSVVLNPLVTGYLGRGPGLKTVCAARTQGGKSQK

## Cc1cc(F)ccc1-c1cc2cc(CCC(=O)O)ccc2[nH]1
[1]
  Emax: 111%
[2]; read-out: EC50
  EC50: 56.9 µM
[3]
  Emax: 32.5%
[4]
  EC50: 0.681 µM
[5]
  fold change (FC): 1.16
[6]
  Activity: inactive
MIN6 [7]
  Activity: Non-Toxic
MIN6 [8]
  Activity: inactive
[9]
  microsomal CLint: ≤ 4 µL/min/mg
[10]
  Tmax: 33 min
[11]
  Tmax: 26.4 min
[12]
  Tlast: 8 h
[13]
  AUC(0-t) at 8 h: 38700 ng·h/mL
[14]
  AUC(0-t) at 8 h: 9620 ng·h/mL

## Cc1ccc(C)c(-c2cc3cc(CCC(=O)O)ccc3[nH]2)c1
[1]
  Emax: 103%
[2]; cho
  EC50: Not Active
[4]
  EC50: 7.53 µM
[6]
  Activity: inactive
MIN6 [7]
  Activity: Non-Toxic
MIN6 [8]
  Activity: inactive
[9]
  microsomal CLint: ≤ 4 µL/min/mg
[10]
  Tmax: 19.8 min
[11]
  Tmax: 19.8 min
[12]
  Tlast: 8 h
[13]
  AUC(0-t) at 8 h: 33600 ng·h/mL
[14]
  AUC(0-t) at 8 h: 186000 ng·h/mL
Mus musculus [15]
  Activity: Active
Mus musculus [16]
  Activity: Active
Mus musculus [17]
  Activity: 163%
